Test system: patients with essential tremor
Assay: T-CALM: treatment-emergent adverse events, discontinuations, dosage reductions
Type: in vivo, human
Protocol: T-CALM employed the following dose titration scheme: Week 1 at 4 mg BID (8 mg/day), Week 2 at 8 mg BID (16 mg/day) and Weeks 3 & 4 at 10 mg BID (20 mg/day). […] Adverse Events were coded using MedDRA V20.0. Only treatment emergent adverse events with an onset date and time after the initiation of study drug until 30 days after discontinuation of drug were reported. For subjects who experience the same coded event more than once, a single event was presented. Adverse events were attributed to a study week based on the onset date, i.e. events that started on or after Visit 1 and prior to Visit 2 were classified as Study Week 1.
Adverse events are characterized by maximum severity, drug-related adverse events, serious adverse events and adverse events leading to discontinuation of study.
Safety procedures involved collection of all TEAEs (treatment-emergent adverse events) coded into the Medical Dictionary for Regulatory Activities (MedDRA) version 20. Adverse events were classified by maximum severity, drug-related adverse events, serious adverse events, and adverse events leading to patient discontinuation.

In the case of `CC(C)c1ccc(CC(=O)N[C@H](C)c2ccc(OCC(F)(F)F)cn2)cc1` [CX-8998], the “AE Vascular Disorders, number of subjects” value (onset in study week 1) is reported as 0, the “AE Any Event, percent of subjects” value (onset in study week 2) is reported as “(21%)” and the “AE Central Nervous System Disorders, number of subjects” value (onset in study week 2) is reported as 4. The “AE Central Nervous System Disorders, percent of subjects” value (onset in study week 2) was “(8%)”, the “AE Ear and Labyrinth Disorders, number of subjects” value (from here on “AE Ear and Labyrinth Disorders”) (onset in study week 2) was 0 and the “AE Eye Disorders, number of subjects” value (onset in study week 2) was 0. The “AE Gastrointestinal Disorders, number of subjects” value (onset in study week 2) was 1, the “AE Gastrointestinal Disorders, percent of subjects” value (onset in study week 2) was “(2%)” and the “AE Infections and Infestations, number of subjects” value (onset in study week 2) was 2. For the same compound, the “AE Infections and Infestations, percent of subjects” value (onset in study week 2) was “(4%)”, the “AE Investigations, number of subjects” value (onset in study week 2) was 1 and the “AE Investigations, percent of subjects” value (onset in study week 2) was “(2%)”. For the same compound, the “AE Metabolism and Nutrition Disorders, number of subjects” value (onset in study week 2) was 0, the “AE Musculoskeletal and Connective Tissue Disorders, number of subjects” value (onset in study week 2) was 1 and the “AE Musculoskeletal and Connective Tissue Disorders, percent of subjects” value (onset in study week 2) was “(2%)”. For the same compound, the “AE Neoplasms, number of subjects” value (onset in study week 2) was 0, the “AE Psychiatric Disorders, number of subjects” value (onset in study week 2) was 2 and the “AE Psychiatric Disorders, percent of subjects” value (onset in study week 2) was “(4%)”. For the same compound, the “AE Skin and Subcutaneous Tissue Disorders, number of subjects” value (onset in study week 2) was 0, the “AE Vascular Disorders, number of subjects” value (onset in study week 2) was 1 and the “AE Vascular Disorders, percent of subjects” value (onset in study week 2) was “(2%)”. The “AE Any Event, percent of subjects” value (onset in study week 3) was “(17%)”, the “AE Central Nervous System Disorders, number of subjects” value (onset in study week 3) was 1 and the “AE Central Nervous System Disorders, percent of subjects” value (onset in study week 3) was “(2%)”. For the same compound, the “AE Ear and Labyrinth Disorders” value (onset in study week 3) was 0, the “AE Eye Disorders, number of subjects” value (onset in study week 3) was 0 and the “AE Gastrointestinal Disorders, number of subjects” value (onset in study week 3) was 1. The “AE Gastrointestinal Disorders, percent of subjects” value (onset in study week 3) was “(2%)”, the “AE Infections and Infestations, number of subjects” value (onset in study week 3) was 2 and the “AE Infections and Infestations, percent of subjects” value (onset in study week 3) was “(4%)”. The “AE Injury, Poisoning and Procedural Complications, percent of subjects” value (onset in study week 3) was “(2%)”, the “AE Investigations, number of subjects” value (onset in study week 3) was 1 and the “AE Investigations, percent of subjects” value (onset in study week 3) was “(2%)”. For the same compound, the “AE Metabolism and Nutrition Disorders, number of subjects” value (onset in study week 3) was 1, the “AE Metabolism and Nutrition Disorders, percent of subjects” value (onset in study week 3) was “(2%)” and the “AE Musculoskeletal and Connective Tissue Disorders, number of subjects” value (onset in study week 3) was 1. For the same compound, the “AE Musculoskeletal and Connective Tissue Disorders, percent of subjects” value (onset in study week 3) was “(2%)”, the “AE Neoplasms, number of subjects” value (onset in study week 3) was 0 and the “AE Psychiatric Disorders, number of subjects” value (onset in study week 3) was 3. For the same compound, the “AE Psychiatric Disorders, percent of subjects” value (onset in study week 3) was “(6%)”, the “AE Respiratory, Thoracic and Mediastinal Disorders, percent of subjects” value (onset in study week 3) was “(2%)” and the “AE Skin and Subcutaneous Tissue Disorders, number of subjects” value (onset in study week 3) was 0. The “AE Vascular Disorders, number of subjects” value (onset in study week 3) was 0, the “AE Any Event, percent of subjects” value (onset in study week 4) was “(4%)” and the “AE Central Nervous System Disorders, number of subjects” value (onset in study week 4) was 0. The “AE Ear and Labyrinth Disorders” value (onset in study week 4) was 0, the “AE Eye Disorders, number of subjects” value (onset in study week 4) was 0 and the “AE Gastrointestinal Disorders, number of subjects” value (onset in study week 4) was 0. The “AE Infections and Infestations, number of subjects” value (onset in study week 4) was 0, the “AE Investigations, number of subjects” value (onset in study week 4) was 1 and the “AE Investigations, percent of subjects” value (onset in study week 4) was “(2%)”. The “AE Metabolism and Nutrition Disorders, number of subjects” value (onset in study week 4) was 1, the “AE Metabolism and Nutrition Disorders, percent of subjects” value (onset in study week 4) was “(2%)” and the “AE Musculoskeletal and Connective Tissue Disorders, number of subjects” value (onset in study week 4) was 0. For the same compound, the “AE Neoplasms, number of subjects” value (onset in study week 4) was 0, the “AE Psychiatric Disorders, number of subjects” value (onset in study week 4) was 2 and the “AE Psychiatric Disorders, percent of subjects” value (onset in study week 4) was “(4%)”. For the same compound, the “AE Skin and Subcutaneous Tissue Disorders, number of subjects” value (onset in study week 4) was 0, the “AE Vascular Disorders, number of subjects” value (onset in study week 4) was 0 and the “AE Any Event, percent of subjects” value (onset in study week >4) was “(2%)”. The “AE Central Nervous System Disorders, number of subjects” value (onset in study week >4) was 1, the “AE Central Nervous System Disorders, percent of subjects” value (onset in study week >4) was “(2%)” and the “AE Ear and Labyrinth Disorders” value (onset in study week >4) was 0. The “AE Eye Disorders, number of subjects” value (onset in study week >4) was 0, the “AE Gastrointestinal Disorders, number of subjects” value (onset in study week >4) was 0 and the “AE Infections and Infestations, number of subjects” value (onset in study week >4) was 0. For the same compound, the “AE Investigations, number of subjects” value (onset in study week >4) was 0, the “AE Metabolism and Nutrition Disorders, number of subjects” value (onset in study week >4) was 0 and the “AE Musculoskeletal and Connective Tissue Disorders, number of subjects” value (onset in study week >4) was 0. For the same compound, the “AE Neoplasms, number of subjects” value (onset in study week >4) was 0, the “AE Psychiatric Disorders, number of subjects” value (onset in study week >4) was 0 and the “AE Skin and Subcutaneous Tissue Disorders, number of subjects” value (onset in study week >4) was 0. The “AE Vascular Disorders, number of subjects” value (onset in study week >4) was 0.

— US20250312323A1 (Cavion, Inc., priority 2018, published 2025)
